The values below come from US7411069B2 (Hypnion, Inc., priority 2003, dated 2008).

What is called pKi is the negative decadic logarithm of the Ki, by convention in mol/L. High values mean a small Ki, low ones a large Ki.

One series has as its target T1, M1 muscarinic receptor (Homo sapiens, UniProt P11229).
T1 construct: purchased PerkinElmer, Inc., Wellesley, Mass; host or cells: CHO cells
T1 sequence (P11229 1-460): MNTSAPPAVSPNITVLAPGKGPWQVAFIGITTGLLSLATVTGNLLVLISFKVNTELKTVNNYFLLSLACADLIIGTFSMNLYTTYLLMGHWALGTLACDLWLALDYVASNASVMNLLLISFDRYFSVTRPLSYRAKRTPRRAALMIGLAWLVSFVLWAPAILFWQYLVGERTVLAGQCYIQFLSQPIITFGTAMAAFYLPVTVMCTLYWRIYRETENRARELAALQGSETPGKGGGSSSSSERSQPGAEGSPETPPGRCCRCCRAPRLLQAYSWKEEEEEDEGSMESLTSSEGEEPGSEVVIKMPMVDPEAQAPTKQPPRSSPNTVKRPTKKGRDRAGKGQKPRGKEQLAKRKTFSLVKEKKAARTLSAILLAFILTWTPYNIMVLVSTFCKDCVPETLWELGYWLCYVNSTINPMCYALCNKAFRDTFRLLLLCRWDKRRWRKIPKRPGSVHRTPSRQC
Put plainly: M1 binding assay ([3H]-scopolamine, N-methyl chloride displacement).

In a further series the target is T2, M2 muscarinic receptor (Homo sapiens, UniProt P08172).
T2 construct: purchased PerkinElmer, Inc., Wellesley, Mass; host or cells: CHO cells
T2 sequence (P08172 1-466): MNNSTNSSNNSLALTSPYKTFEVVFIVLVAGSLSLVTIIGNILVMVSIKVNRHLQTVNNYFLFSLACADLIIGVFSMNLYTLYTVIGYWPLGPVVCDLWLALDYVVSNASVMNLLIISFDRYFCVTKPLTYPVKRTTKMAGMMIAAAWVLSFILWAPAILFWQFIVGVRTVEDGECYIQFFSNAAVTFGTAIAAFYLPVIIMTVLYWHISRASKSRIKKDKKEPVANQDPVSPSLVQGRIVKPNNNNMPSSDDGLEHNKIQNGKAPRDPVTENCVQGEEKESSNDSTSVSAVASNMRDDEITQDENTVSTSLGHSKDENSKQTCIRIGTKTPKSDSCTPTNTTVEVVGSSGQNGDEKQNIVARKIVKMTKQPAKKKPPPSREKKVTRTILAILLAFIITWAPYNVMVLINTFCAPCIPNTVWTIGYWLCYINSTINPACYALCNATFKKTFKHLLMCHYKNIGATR
Description: M2 binding assay ([3H]-scopolamine, N-methyl chloride displacement).

The target in the next series is T3, M3 muscarinic receptor (Homo sapiens, UniProt P20309).
T3 construct: purchased PerkinElmer, Inc., Wellesley, Mass; host or cells: CHO cells
T3 sequence (P20309 whole entry): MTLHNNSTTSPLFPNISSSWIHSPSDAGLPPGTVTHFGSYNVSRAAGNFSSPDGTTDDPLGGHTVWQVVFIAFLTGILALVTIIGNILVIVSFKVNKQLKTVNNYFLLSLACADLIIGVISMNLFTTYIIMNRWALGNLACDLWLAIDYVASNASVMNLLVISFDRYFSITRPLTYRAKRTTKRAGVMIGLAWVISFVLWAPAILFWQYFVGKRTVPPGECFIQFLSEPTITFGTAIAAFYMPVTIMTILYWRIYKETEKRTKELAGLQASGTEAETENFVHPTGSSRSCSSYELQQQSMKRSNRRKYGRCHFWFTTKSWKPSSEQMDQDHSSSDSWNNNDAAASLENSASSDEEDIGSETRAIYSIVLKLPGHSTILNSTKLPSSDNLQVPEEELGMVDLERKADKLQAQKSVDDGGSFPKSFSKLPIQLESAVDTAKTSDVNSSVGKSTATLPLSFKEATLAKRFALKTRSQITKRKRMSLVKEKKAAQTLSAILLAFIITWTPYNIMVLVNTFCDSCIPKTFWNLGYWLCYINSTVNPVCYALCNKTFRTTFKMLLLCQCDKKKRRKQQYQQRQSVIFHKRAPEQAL
Description: M3 binding assay ([3H]-scopolamine, N-methyl chloride displacement).

A short description of series [1]: In vitro rate of metabolism in human hepatocyte cultures. It counts as in vitro ADME. The protocol: (§1) Cytochrome P450 inhibition was studied with HY2901 in vitro. […] In addition, the in vitro rate of metabolism in rat, dog, monkey, and human hepatocyte cultures was determined for HY2901.
The nature of series [2]: In vitro rate of metabolism in rat hepatocyte cultures. It counts as in vitro ADME. The protocol: as §1
Series [3] relates to purebred Beagles. Description: Acute dog study (toxicity and MTD, escalating oral doses). It counts as in vivo.
For another series, the system named is Crl:CD(SD)IGS BR rats. Description: 14-Day rat study with recovery. It counts as in vivo. The protocol:
The purpose of this study was to evaluate the toxicity of HY2901 when administered via oral gavage to rats for at least 14 days and to assess the reversibility, persistence, or delayed occurrence of any effects after a recovery period of up to 14 days.
Male and female Crl:CD®(SD)IGS BR rats were assigned to seven groups, four main study groups and three groups for toxicokinetics. Each group received dose preparations containing 0.25% methylcellulose, 400 cps in 200 mM acetate buffer, or 10, 30, or 150 mg of test article/kg of body weight (mg/kg/day) at a dose volume of 5 mL/kg.
Assessment of toxicity was based on mortality, clinical and ophthalmic observations, body weights, food consumption, clinical pathology, organ weights, and macroscopic and microscopic findings. Blood samples were collected for toxicokinetic evaluation.

The next series is described as follows: Pharmacokinetics in rats. Format: in vivo, rat. The conditions noted are these: 3 mg/kg. The method, then:
HY2901 was administered to rats, dogs, and cynomolgus monkeys at a dose of 3 mg/kg orally and intravenously. Plasma samples were collected from all species for pharmacokinetic analysis. […] HY2901 is 75% protein bound in rat plasma and 60% protein bound in human plasma.

The next series concerns Crl: CD(SD)IGS BR rats. Put plainly: Acute rat study (toxicity and MTD, oral gavage). It counts as in vivo. The protocol:
The purpose of this study was to evaluate the toxicity and maximum tolerated dose (MTD) of the test articles when given via oral gavage to rats. Male Crl: CD®(SD)IGS BR rats (3/group) were assigned to 5 groups. At initiation of dosing, animals were approximately 7 weeks old with body weights ranging from 172 to 206 g. Each group received either 50, 100, 150, 200, or 250 mg/kg of HY2901 once daily for 5 days. All surviving animals were sacrificed on Day 6. Assessment of toxicity was based on mortality, clinical observations, and body weight data.

A short description of series [4]: Excretion in urine of animal species. Format: in vivo.
In the next series the test system is telemetered Beagle dogs. Put plainly: ECG and arterial blood pressure in telemetered Beagle dogs. It counts as in vivo, dog. The protocol: To determine if HY2901 could produce any changes in QT interval, the compound was studied in telemetered Beagle dogs. Dogs were implanted with devices to continuously monitor ECG and arterial blood pressure. Dogs (groups of 4) were studied in a Latin square cross-over design, with each dog receiving 3 different doses and a placebo. Two studies were conducted with doses of 0.3, 1, 3, 10, and 30 mg/kg. […] The tachycardia persisted for 6-8 hours postdose at 0.3 and 1 mg/kg. A ceiling effect to the heart rate increase seemed to exist with heart rates peaking at approximately 150-160 in both the 10 and 30 mg/kg dose groups.

Series [5] deals with purebred Beagles. Description: 14-Day dog study with recovery phase. Format: in vivo. The method, then:
The toxicity and the toxicokinetics of HY2901 when administered daily via oral gavage (Phase 1) or capsules (Phase 2) to dogs for at least 14 days was determined. The reversibility, persistence, or delayed occurrence of observable effects following a 7-day (Phase 1) or 14-day (Phase 2) recovery period was also assessed. Doses of 3, 10, 30, and 70 mg/kg/day were studied.

The test system of series [6] is male Wistar rats. It counts as in vivo. The following applies: oral. The protocol: The Irwin screen can provide useful information on potential side effects of compounds on general physiological and behavioural functions. The screen was conducted by administering the test compounds orally in 0.25% aqueous methylcellulose using male Wistar rats, a frequently used species in such studies and for which background data are readily available.
The Irwin screen tests for numerous parameters in animals that have been administered the test compound. For example, the screen can include: in-cage effects, e.g., dispersion, respiratory rate, locomotor activity, restlessness, fighting, alertness, apathy, and exophthalmus; in-arena effects, e.g., transfer arousal, spatial locomotion, ptosis, startle, tail elevation, piloerection, touch escape, positional passivity, catalepsy, tighting reflex, visual placing, grip strength, pinna, corneal, pain response, and wire manoeuvre; parameters observed in handling, e.g., cyanosis, cutaneous blood flow, hypothermia, body tone, pupil size, light-pupil response, lacrimation, grooming, red staining, salivation, and provoked biting; general scores e.g., fearfulness, irritability, abnormal gait, abnormal body carriage, tremors, twitches, convulsions, bizarre behaviour, writhing, vocalisation, diarrhoea, number of defaecations, number of urinations, moribund, lethality, and abnormalities detected. Further details can be found in Irwin, S; Comprehensive observational assessment: I a. A systematic, quantitative procedure for assessing the behavioural and physiological state of the mouse. […]

A further series has as its target hERG channel (Homo sapiens, UniProt Q12809).
Series [7] relates to male Wistar rats. Put plainly: SCORE-2000 sleep-wakefulness, locomotor activity and body temperature monitoring. The following applies: oral, CT-18.
[8] abbreviates: 50-250 mg/kg once daily for 5 days.

SMILES strings stand for the structures. pKi: −log10 of the molar value. Read-outs that look alike come from different tables or passages of the source. Bounds are passed on as bounds.

Chain of hERG channel (Q12809 whole entry): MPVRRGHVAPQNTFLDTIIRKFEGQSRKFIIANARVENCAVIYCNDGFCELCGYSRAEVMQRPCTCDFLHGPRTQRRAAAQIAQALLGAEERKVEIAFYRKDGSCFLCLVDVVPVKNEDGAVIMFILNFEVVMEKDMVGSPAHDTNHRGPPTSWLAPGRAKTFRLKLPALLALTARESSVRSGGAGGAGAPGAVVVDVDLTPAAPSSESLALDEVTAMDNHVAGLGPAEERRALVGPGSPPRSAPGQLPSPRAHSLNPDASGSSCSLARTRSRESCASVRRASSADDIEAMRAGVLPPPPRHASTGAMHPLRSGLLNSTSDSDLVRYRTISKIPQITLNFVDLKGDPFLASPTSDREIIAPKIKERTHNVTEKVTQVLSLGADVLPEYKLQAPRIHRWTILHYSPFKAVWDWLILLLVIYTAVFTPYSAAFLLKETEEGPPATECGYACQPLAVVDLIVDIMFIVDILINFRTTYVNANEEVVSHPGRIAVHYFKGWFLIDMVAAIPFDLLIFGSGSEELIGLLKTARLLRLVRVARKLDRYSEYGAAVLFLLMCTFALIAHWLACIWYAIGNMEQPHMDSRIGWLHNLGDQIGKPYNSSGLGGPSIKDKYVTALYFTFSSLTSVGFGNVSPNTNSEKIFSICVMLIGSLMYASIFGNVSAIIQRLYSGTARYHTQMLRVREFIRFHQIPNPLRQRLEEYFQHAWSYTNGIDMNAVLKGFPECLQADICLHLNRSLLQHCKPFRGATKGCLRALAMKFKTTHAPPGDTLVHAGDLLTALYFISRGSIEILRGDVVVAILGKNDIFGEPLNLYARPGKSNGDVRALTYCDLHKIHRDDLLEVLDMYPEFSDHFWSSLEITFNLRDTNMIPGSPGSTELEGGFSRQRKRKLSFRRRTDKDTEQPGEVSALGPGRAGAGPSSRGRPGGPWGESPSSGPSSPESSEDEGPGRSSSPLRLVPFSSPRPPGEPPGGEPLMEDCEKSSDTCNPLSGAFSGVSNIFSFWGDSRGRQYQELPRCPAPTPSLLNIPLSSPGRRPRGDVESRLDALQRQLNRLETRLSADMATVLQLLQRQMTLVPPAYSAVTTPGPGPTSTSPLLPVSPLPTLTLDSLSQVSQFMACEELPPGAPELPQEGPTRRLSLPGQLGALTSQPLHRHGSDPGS

As for `CC(C)(CN1CCC(=C2c3ccccc3COc3ccccc32)CC1)C(=O)O` [Compound 69a], the pKi at M1 muscarinic receptor, on M2 muscarinic receptor and at M3 muscarinic receptor was less than 5.00 each time.
Take `CC(C)(CN1CCC(=C2c3ccc(F)cc3COc3ccccc32)CC1)C(=O)O` [Compound 49a]: the values for the metabolism by hepatocytes entry in series [1] and in [2] were “little metabolism” and “extensively metabolized”, respectively. Also, the clinical signs result in the series with purebred Beagles [3] (25 mg/kg) was “No clinical signs of toxicity”; in the series on purebred Beagles [3] (40 mg/kg on Day 5) it was “body tremors, mild to moderate ataxia, excessive salivation and hypoactivity”; with purebred Beagles [3] (50 mg/kg) it was “Body tremors, mild to severe ataxia, and hypoactivity”; in the series with purebred Beagles [3] (75 mg/kg) it was “Tremors (entire body, hind limbs, and/or head), mild to moderate ataxia, hypoactivity”. For the same compound, in the series with purebred Beagles [3] (dog, in vivo), the “effect on body weight” value was “minimal effect”. Further, the food consumption entry in the series on Crl:CD(SD)IGS BR rats (150 mg/kg/day rats, Week 1) is on record as “depression in food consumption”. In addition, the unscheduled deaths result in the series with Crl:CD(SD)IGS BR rats (10, 30, 150 mg/kg/day) is “largely restricted to the 150 mg/kg/day groups”. In addition, the “increases in Cmax and AUC(0-t) with dose” value in the series on Crl:CD(SD)IGS BR rats (10 to 150 mg/kg/day, except Cmax at 150 mg/kg/day on Day 14) is given as “greater than dose proportional”. Besides, the ophthalmic observations entry with Crl:CD(SD)IGS BR rats (any group) is reported as “No ophthalmic lesions”. In addition, the “absorption after oral administration” value in “Pharmacokinetics in rats” (all species (rat, dog, cynomolgus monkey)) was “rapidly and highly absorbed”. In addition, the Peak plasma levels entry in “Pharmacokinetics in rats” (rats, most efficacious dose in the sleep assay) is recorded as “less than 1.5 mM”. Besides, in the series on Crl: CD(SD)IGS BR rats (setting [8]), the hypoactivity result was “observed in all rats”. Moreover, the “incidence and duration of ataxia” value with Crl: CD(SD)IGS BR rats (setting [8]) is on record as “dose-response relationship was observed”. The “Day 6 body weights” value with Crl: CD(SD)IGS BR rats (two 250 mg/kg rats) is recorded as “slightly decreased”. Moreover, the “drug and metabolites in urine” value in series [4] is “Unchanged HY2901, as well as metabolites, has been found in the urine”. The “changes in QT or corrected QT interval” value in the series with telemetered Beagle dogs (0.3, 1, 3, 10 and 30 mg/kg, any dose) was “no changes”. Also, the heart rate effect entry in the series on telemetered Beagle dogs (0.3-30 mg/kg, intravenous or oral) was “dose-related sinus tachycardia”. For the same compound, in the series with telemetered Beagle dogs (0.3 and 1 mg/kg), the “persistence of tachycardia postdose” value was 6 to 8 h. Besides, in the series with telemetered Beagle dogs (10 and 30 mg/kg dose groups), the peak heart rate was 150-160. Also, the “persistence of sinus tachycardia” value in the series on telemetered Beagle dogs (higher doses) fell in the range of 10 to 12 h. Moreover, the blood pressure entry in the series with telemetered Beagle dogs (paralleled the tachycardia) was “slight increase”. In addition, the clinical observations entry in the series on purebred Beagles [5] (3 mg/kg/day, Phase 1) was “no treatment-related clinical observations”; in the series with purebred Beagles [5] (Phase 2), “treatment-related head tremors, ataxia, hypoactivity, and excessive salivation”. For the same compound, in the series with purebred Beagles [5] (Beagle, dog, in vivo, 14 days), the survival result was “survived until scheduled sacrifice”. Moreover, the clinical pathology data result in the series on purebred Beagles [5] (Phase 1 and 2) was “no evidence in the clinical laboratory data of an effect”.
For the compound `O=C(O)C1(CCN2CCC(=C3c4ccccc4COc4ccccc43)CC2)CC1` [Compound 70b], the “Side effects in Irwin screen” value is given as “clean” in the series on male Wistar rats [6] (10 mg/kg dose), “clean” in the series with male Wistar rats [6] (30 mg/kg dose) and “some side effects” with male Wistar rats [6] (100 mg/kg dose). This compound also yielded a hERG blocking at hERG channel of 50.2%. Also, the LUSB was determined as 8.3 min with male Wistar rats [7] (dose 10 mg/kg) and 13.8 min with male Wistar rats [7] (dose 30 mg/kg). The NREM in the series on male Wistar rats [7] (dose 10 mg/kg) was 33.7 min; in the series with male Wistar rats [7] (dose 30 mg/kg), 43.2 min.
